{"source": "patent US20090137652A1", "about": "“METHODS FOR NEUROPROTECTION” (priority 2005, published 2009)", "format_in_all_cases": "in vivo, rat", "key": {"[1]": {"system": "rats subjected to Li-pilo induced SE", "experiment": "Mortality induced by lithium-pilocarpine status epilepticus (Example 1)", "method": "(§1) Male Wistar rats weighing 225-250 g, provided by Janvier Breeding Center (Le Genest-St-lste, France) were housed under controlled standard conditions (light/dark cycle, 7.00 a.m.-7.00 p.m. lights on), with food and water available ad libitum. All animal experimentation was performed in accordance with the rules of the European Communities Council Directive of Nov. 24, 1986 (86/609/EEC), and the French Department of Agriculture (License No 67-97). For electrode implantation, rats were anesthetized by an i.p. injection of 2.5 mg/kg diazepam (DZP, Valium, Roche, France) and […] ketamine chlorhydrate (Imalgene 1000, Rhone Merrieux, France). Four single-contact recording electrodes were placed on the skull, over the parietal cortex, two on each side.\n(§2) All rats received lithium chloride (3 meq/kg, i.p., Sigma, St Louis, Mo., U.S.A.); about 20 h later, animals were placed into plexiglas boxes, in order to record baseline cortical EEG. Methylscopolamine bromide (1 mg/kg, s.c., Sigma) was administered to limit the peripheral effects of the convulsant. SE was induced by injecting pilocarpine hydrochloride (25 mg/kg, s.c., Sigma) 30 min after methyl-scopolamine. The bilateral EEG cortical activity was recorded during the whole duration of SE and behavioral changes were noted.\n(§3) The effects of increasing doses of the test compound were studied on 3 groups of rats. The animals of the first group received 10 mg/kg of the test compound, i.p., 1 h after the onset of SE (pilo-TC10) while the animals of groups 2 and 3 received 30 and 60 mg/kg of the test compound (pilo-TC30 and pilo-TC60), respectively.\n(§4) Another group was injected with 2 mg/kg diazepam (DZP, i.m.) at 1 h after the onset of SE. This is a standard treatment to improve animals survival after SE (pilo-DZP). The control group received saline instead of pilocarpine and the test compound (saline-saline). The pilo-test compound rats surviving SE were then injected about 10 h after the first test compound injection with a second i.p. injection of the same dose of the test compound and were maintained under a twice daily treatment with the test compound for 6 additional days. Pilo-DZP received a second injection of 1 mg/kg DZP on the day of SE at about 10 h after the first one. Thereafter, Pilo-DZP and saline-saline rats received twice daily an equivalent volume of saline.\nThe difference was statistically significant (p<0.01)."}, "[2]": {"system": "rats subjected to Li-pilo induced SE", "experiment": "EEG patterns during lithium-pilocarpine SE (Example 1)", "method": "as §1, §2, §3, §4\nThe effects of the test compound on the EEG and on the latency to occurrence of SRS were investigated by daily video recording of the animals for 10 h per day and the recording of the electrographic activity twice a week for 8 h."}, "[3]": {"system": "rats subjected to Li-pilo induced SE", "experiment": "Timm staining, mossy fiber sprouting in hippocampus (Example 1)", "method": "At 2 months after the onset of spontaneous recurrent seizures, mossy fiber sprouting was examined on rats in the chronic period exposed to the test compound or DZP and in 3 saline-saline rats. Animals were deeply anaesthetized and perfused transcardially with saline followed by 100 ml of 1.15% (w/v) Na2S in 0.1 M phosphate buffer, and 100 ml of 4% (v/v) formaldehyde in 0.1 M phosphate buffer. Brains were removed from skull, post-fixed in 4% formaldehyde during 3-5 h and 40 μm sections were cut on a sliding vibratome and mounted on gelatin-coated slides.\nThe following day, sections were developed in the dark in a 26° C. solution of 50% (w/v) arabic gum (160 ml), sodium citrate buffer (30 ml), 5.7% (w/v) hydroquinone (80 ml) and 10% (w/v) silver nitrate (2.5 ml) during 40-45 min. The sections were then rinsed with tap water at 40° C. during at least 45 min, rinsed rapidly with distilled water and allowed to dry. They were dehydrated in ethanol and coverslipped.\nMossy fiber sprouting was evaluated according to criteria previously described in dorsal hippocampus (Cavazos et al., 1991, J Neurosci 11:2795-2803), which are follows: O— no granules between the tips and crest of the DG; 1—sparse granules in the supragranular region in a patchy distribution between the tips and crest of DG; 2—more numerous granules in a continuous distribution between the tips and crest of DG; 3—prominent granules in a continuous pattern between tips and crest, with occasional patches of confluent granules between tips and crest; 4—prominent granules that form a confluent dense laminar band between tips and crest and 5—confluent dense laminar band of granules that extends into the inner molecular layer."}, "[4]": {"system": "rats subjected to li-pilo SE", "experiment": "Mortality over the first 48 h after lithium-pilocarpine SE (Example 2)", "method": "Adult male Sprague-Dawley rats provided by Janvier Breeding Center (Le Genest-St-Isle, France) were housed under controlled, uncrowded standard conditions at 20-22° C. (light/dark cycle, 7.00 a.m.-7.00 p.m. lights on), with food and water available ad libitum. All animal experimentation was performed in accordance with the rules of the European Communities Council Directive of Nov. 24, 1986 (86/609/EEC), and the French Department of Agriculture (License No 67-97).\nAll rats received lithium chloride (3 meq/kg, i.p., Sigma, St Louis, Mo., U.S.A.) and about 20 h later, all animals received also methylscopolamine bromide (1 mg/kg, s.c., Sigma) that was administered to limit the peripheral effects of the convulsant. SE was induced by injecting pilocarpine hydrochloride (25 mg/kg, s.c., Sigma) 30 min after methylscopolamine. The effects of increasing doses of TC (RWJ) were studied in 5 groups of rats. […] The control group received vehicle instead of pilocarpine and TC. The rats surviving SE were then injected about 10 h after the first TC injection with a second i.p. injection of 1.25 mg/kg DZP for the DZP group or of the same dose of TC as in the morning and were maintained under a twice daily TC treatment (s.c.) for 6 additional days while DZP rats received a vehicle injection.\nA total number of 143 Sprague-Dawley rats weighing 250-330 g were subjected to lithium-pilocarpine (Li-pilo)-induced SE. […] The behavioral characteristics of SE were identical in both li-pilo-DZP and li-pilo-TC groups. Within 5 min after pilocarpine injection, rats developed diarrhea, piloerection and other signs of cholinergic stimulation. […] Recurrent seizures started around 15-20 min after pilocarpine administration. These seizures which associated episodes of head and bilateral forelimb myoclonus with rearing and falling progressed to SE at about 35-40 min after pilocarpine, as previously described (Turski et al., 1989; Dube et al., 2001; Andre et al., 2003). The control group not subjected to SE and receiving lithium and saline was composed of 20 rats."}}, "data": [{"smiles": "CN1C(=O)CN=C(c2ccccc2)c2cc(Cl)ccc21", "note": "[DZP, diazepam, reference compound]", "values": [{"measurement": "degree of mortality during the first 48 h after SE", "setting": "[1]; pilo-DZP, DZP 2 mg/kg i.m. 1 h after onset of SE, 5/22", "value": 23, "unit": "%"}, {"measurement": "EEG activity in the cortex and the hippocampus by 6-7 h of SE", "setting": "[2]; DZP-treated rats (2 mg/kg i.m.)", "value": "spiking activity was still present"}, {"measurement": "mean Timm score, upper blade of the dentate gyrus", "setting": "[3]; pilo-DZP, n=9, score scale 0-5", "value": "2.8±0.8"}, {"measurement": "degree of mortality over the first 48 h after SE", "setting": "[4]; DZP 2.5 mg/kg i.m., group devoted to cell counting at 14 days, 4/11", "value": 36, "unit": "%"}, {"measurement": "degree of mortality over the first 48 h after SE", "setting": "[4]; DZP 2.5 mg/kg i.m., group devoted to latency to SRS and late cell counting, 1/14", "value": 7, "unit": "%"}]}, {"smiles": "NC(=O)OC[C@@H](O)c1ccccc1Cl", "note": "[Formula 7]", "values": [{"measurement": "degree of mortality during the first 48 h after SE", "setting": "[1]; pilo-TC10, TC 10 mg/kg i.p. 1 h after onset of SE, 6/23", "value": 26, "unit": "%"}, {"measurement": "degree of mortality during the first 48 h after SE", "setting": "[1]; pilo-TC30, TC 30 mg/kg i.p. 1 h after onset of SE, 5/25", "value": 20, "unit": "%"}, {"measurement": "degree of mortality during the first 48 h after SE", "setting": "[1]; pilo-TC60, TC 60 mg/kg i.p. 1 h after onset of SE, 1/23, p<0.01", "value": 4, "unit": "%"}, {"measurement": "EEG activity in the cortex and the hippocampus by 6-7 h of SE", "setting": "[2]; TC10-treated rats (10 mg/kg i.p.)", "value": "spiking activity was still present"}, {"measurement": "amplitude of the EEG by 6-7 h of SE, hippocampus", "setting": "[2]; TC30 rats (30 mg/kg i.p.)", "value": "came back to baseline levels"}, {"measurement": "amplitude of the EEG by 6-7 h of SE, hippocampus and cortex (both structures)", "setting": "[2]; TC60 treated rats (60 mg/kg i.p.)", "value": "came back to baseline levels"}, {"measurement": "mean Timm score, upper blade of the dentate gyrus", "setting": "[3]; pilo-TC10, n=7, p=0.032 vs pilo-DZP", "value": "1.5±0.6"}, {"measurement": "mean Timm score, upper blade of the dentate gyrus", "setting": "[3]; pilo-TC30, n=10", "value": "2.6±1.0"}, {"measurement": "mean Timm score, upper blade of the dentate gyrus", "setting": "[3]; pilo-TC60 subgroup with early SRS occurrence, n=6", "value": "1.8±0.6"}, {"measurement": "mean Timm score, upper blade of the dentate gyrus", "setting": "[3]; pilo-TC60 subgroup with late occurrence or absence of SRS, n=5, p=0.016 vs pilo-DZP", "value": "1.2±0.6"}, {"measurement": "mean Timm score, upper blade of the dentate gyrus", "setting": "[3]; whole group of pilo-TC60 rats, n=11", "value": "1.5±0.7"}, {"measurement": "degree of mortality over the first 48 h after SE", "setting": "[4]; TC30 (30 mg/kg i.p.), group devoted to cell counting at 14 days, 4/12", "value": 33, "unit": "%"}, {"measurement": "degree of mortality over the first 48 h after SE", "setting": "[4]; TC30, group devoted to latency to SRS and late cell counting, 3/11", "value": 27, "unit": "%"}, {"measurement": "degree of mortality over the first 48 h after SE", "setting": "[4]; TC60 (60 mg/kg i.p.), group devoted to cell counting at 14 days, 1/12", "value": 8, "unit": "%"}, {"measurement": "degree of mortality over the first 48 h after SE", "setting": "[4]; TC60, group devoted to latency to SRS and late cell counting, 0/10", "value": 0, "unit": "%"}, {"measurement": "degree of mortality over the first 48 h after SE", "setting": "[4]; TC90 (90 mg/kg i.p.), group devoted to cell counting at 14 days, 0/10", "value": 0, "unit": "%"}, {"measurement": "degree of mortality over the first 48 h after SE", "setting": "[4]; TC90, group devoted to latency to SRS and late cell counting, 0/11", "value": 0, "unit": "%"}, {"measurement": "degree of mortality over the first 48 h after SE", "setting": "[4]; TC120 (120 mg/kg i.p.), group devoted to cell counting at 14 days, 4/12", "value": 33, "unit": "%"}, {"measurement": "degree of mortality over the first 48 h after SE", "setting": "[4]; TC120, group devoted to latency to SRS and late cell counting, 0/9", "value": 0, "unit": "%"}]}]}
